The values below come from article PMC12165925 (Natural Products and Bioprospecting, 2025).

The target of one series is ACE2 (Homo sapiens, UniProt Q9BYF1). Briefly: Surface plasmon resonance, immobilized ACE2. Particulars: for kon / koff: SPR; for kon: read-out: binding rate constant (ka), ACE2; for koff: read-out: dissociation rate constant (kd), ACE2. The class given is binding. The protocol:
Binding affinities between compounds and ACE2 or S-RBD were evaluated using a Biacore T200 instrument (Cytiva, UK). […] A mixture of 50 mM NHS and 200 mM EDC was injected to activate the surface, after which 20 µg/mL ACE2 was immobilized to achieve 15,020 RU, and 30 µg/mL S-RBD reached 7193 RU. Surface blocking was performed using 1 M ethanolamine at pH 8.5. Delphinidin with 5% DMSO was injected into the flow system and analyzed for 120 s, followed by 300 s of dissociation. Glycine–HCl at pH 3.0 was used for surface regeneration between analyte injections. Data were processed using double reference subtraction and solvent corrections. Binding affinities were determined using a Langmuir 1:1 binding model in Biacore Evaluation software (Cytiva, UK).

In the next series the test system is Vero-E6 cells. Briefly: Cytotoxicity, CCK-8, Vero-E6 cells. Particulars: at 200 µM.
Series [1] is described as follows: Cytotoxicity, CCK-8, Vero-E6 cells. Particulars: African green monkey.
Series [2] deals with T1, SARS-CoV-2 3CL^pro (Severe acute respiratory syndrome coronavirus 2, UniProt P0DTD1). As to the kind of experiment: biochemical. The class given is binding.
For series [3], the target named is T1, SARS-CoV-2 3CL^pro.
A further series deals with cathepsin L (CTSL) (Homo sapiens, UniProt P07711). Briefly: Host protease inhibitory activity assay, CTSL. The following applies: 50 µM, p < 0.001.
On the set-up of series [4]: method as in PMID 31557009. Particulars: cited from earlier work.
For another series, the system named is SARS-CoV-2-S pseudovirus. Briefly: microbe, parasite or virus in culture. The class given is cell-based. Particulars: for inhibition of attachment of SARS-CoV-2-S pseudovirus to ACE2-expressing HEK293T cells: 5 µM and 50 µM, p < 0.001; for IC50: Pseudovirus.
A further series concerns the target S-RBD (Severe acute respiratory syndrome coronavirus 2, UniProt P0DTC2). As to the kind of experiment: Surface plasmon resonance, immobilized S-RBD. The class given is binding, SARS-CoV-2. Particulars: SPR; for Kd: Langmuir 1:1 binding model; for kon: read-out: ka, S-RBD. On the technique in general: In SPR one partner is held on a chip, and binding of the other changes the refractive index at the surface.

The next series addresses T2, chymotrypsin C (CTRC) (Homo sapiens, UniProt Q99895).
T2 sequence (Q99895 30-268): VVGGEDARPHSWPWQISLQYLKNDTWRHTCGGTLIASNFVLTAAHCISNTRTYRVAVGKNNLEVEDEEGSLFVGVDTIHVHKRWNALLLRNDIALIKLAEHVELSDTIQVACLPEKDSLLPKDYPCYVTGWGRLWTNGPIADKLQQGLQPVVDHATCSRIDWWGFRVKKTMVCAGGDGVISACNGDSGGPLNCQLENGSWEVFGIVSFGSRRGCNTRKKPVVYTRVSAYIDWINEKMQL
Briefly: Host protease inhibitory activity assay, CTRC. The following applies: 50 µM, p < 0.001.

For series [5], the target named is T1, SARS-CoV-2 3CL^pro. As to the kind of experiment: biochemical.
Series [6] is described as follows: Cytotoxicity, CCK-8, hACE2-HEK293T cells. Particulars: human.
The next series has as its system hACE2-HEK293T cells. As to the kind of experiment: Cytotoxicity, CCK-8, hACE2-HEK293T cells.
A further series has as its target cathepsin B (CTSB) (Homo sapiens, UniProt P07858). As to the kind of experiment: Host protease inhibitory activity assay, CTSB. Particulars: 50 µM.
In another series the test system is HCoV-229E. Briefly: Anti HCoV-229E activity in BEL-7402 cells (CPE, RT-qPCR). The class given is cell-based.
In a further series the test system is BEL-7402 cells. Briefly: Maximum non-toxic concentration in BEL-7402 cells (CPE monitoring).
Details of series [7]: method as in PMID 25980422. The following applies: cited from earlier work.

Sequence of ACE2 (Q9BYF1 18-805): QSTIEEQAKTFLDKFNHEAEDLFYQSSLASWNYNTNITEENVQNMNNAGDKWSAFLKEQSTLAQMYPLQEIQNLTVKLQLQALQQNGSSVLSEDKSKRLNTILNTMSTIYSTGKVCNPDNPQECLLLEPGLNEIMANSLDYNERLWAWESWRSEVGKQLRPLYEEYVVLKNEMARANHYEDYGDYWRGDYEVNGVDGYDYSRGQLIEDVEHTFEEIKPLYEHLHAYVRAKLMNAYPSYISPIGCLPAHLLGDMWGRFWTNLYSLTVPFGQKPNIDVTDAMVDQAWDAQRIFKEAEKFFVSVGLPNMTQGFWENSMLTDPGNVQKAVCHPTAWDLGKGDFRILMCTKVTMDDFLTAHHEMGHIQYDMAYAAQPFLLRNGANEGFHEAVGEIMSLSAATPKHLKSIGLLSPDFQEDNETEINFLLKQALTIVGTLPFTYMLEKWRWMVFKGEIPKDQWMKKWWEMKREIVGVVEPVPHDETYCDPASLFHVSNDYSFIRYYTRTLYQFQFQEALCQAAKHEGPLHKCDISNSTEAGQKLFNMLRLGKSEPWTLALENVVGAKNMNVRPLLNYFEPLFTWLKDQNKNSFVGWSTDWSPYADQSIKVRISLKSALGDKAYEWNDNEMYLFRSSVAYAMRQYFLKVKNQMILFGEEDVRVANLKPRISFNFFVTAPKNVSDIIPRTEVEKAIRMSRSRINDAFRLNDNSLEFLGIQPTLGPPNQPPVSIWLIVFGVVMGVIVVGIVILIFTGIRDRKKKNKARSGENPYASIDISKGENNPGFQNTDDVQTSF
Sequence of cathepsin L (CTSL) (P07711 114-333): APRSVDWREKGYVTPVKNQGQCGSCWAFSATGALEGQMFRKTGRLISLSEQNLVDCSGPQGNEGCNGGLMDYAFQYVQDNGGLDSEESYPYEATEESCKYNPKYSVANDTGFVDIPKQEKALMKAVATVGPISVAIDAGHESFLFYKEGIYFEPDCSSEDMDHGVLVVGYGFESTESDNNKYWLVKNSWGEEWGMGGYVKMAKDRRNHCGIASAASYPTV
Procedure for cathepsin B (CTSB): The activities of cathepsin B (CTSB), cathepsin L (CTSL), and chymotrypsin C (CTRC) were assessed following established methods [35, 36]. […] After further dilution to 500 pM, CTSB was incubated with the test compounds for 30 min, followed by the addition of 5 µM Z-Phe-Arg-AMC (NJPeptide Biotech, Nanjing, China) to initiate the reaction. Fluorescence was recorded using a Cytation 5 reader at excitation/emission wavelengths of 360/460 nm.
Procedure for cathepsin L (CTSL): (§1) Similarly, CTSL (Sino Biological, Beijing, China) was diluted, activated, and incubated with the test compounds before Z-Phe-Arg-AMC was added, with fluorescence measurements taken under the same conditions. For CTRC (Novoprotein, Suzhou, China), a 5 µg/mL solution was incubated with the test compounds in Tris buffer, then activated with trypsin (Sigma, Saint Louis, USA). The reaction was initiated using 100 µM Succinyl-Ala-Ala-Pro-Phe-p-nitroanilide (NJPeptide Biotech, Nanjing, China), and absorbance was measured at 405 nm.
Procedure for chymotrypsin C (CTRC): as §1

As for `Oc1cc(O)c2cc(O)c(-c3cc(O)c(O)c(O)c3)[o+]c2c1` [Delphinidin], on ACE2, binding was put at a Kd of 6.64 µM, the kon stood at 309 M⁻¹ s⁻¹ and the koff worked out at 0.00205 s⁻¹. Besides, the “cytotoxicity on Vero-E6 cells” value in the series with Vero-E6 cells is on record as “no toxicity”. This molecule had a CC50 at 24 h in series [1] greater than 200 µM. Besides, binding on SARS-CoV-2 3CL^pro [2] was characterised by a dissociation constant (Kd) of 24.5 µM. Also, the kon on SARS-CoV-2 3CL^pro [2] (read-out: Ka, SARS-CoV-2 3CL^pro) is 296 M⁻¹ s⁻¹. Besides, at SARS-CoV-2 3CL^pro [3], the “IC50 shift, 3 vs 30 min pre-incubation” value is 2.85 times and the “inhibition mechanism on SARS-CoV-2 3CL^pro” value is recorded as “non-competitive inhibitor”. Besides, the “inhibition of CTSL” value on cathepsin L (CTSL) is on record as “strong inhibitory effect”. In addition, the bioavailability entry in series [4] is “low”. Also, in the series on SARS-CoV-2-S pseudovirus, the “selectivity index (SI), [CC50]/[IC50]” value was greater than 4.41; the “inhibition of attachment of SARS-CoV-2-S pseudovirus to ACE2-expressing HEK293T cells” value is recorded as “significantly inhibited”; the 50% inhibitory concentration (IC50) turned out to be 45.4 ± 7.09 µM. Also, at S-RBD, the “kd, S-RBD” value is recorded as 1.14 × 10^–3 s^−1; binding was characterised by a dissociation constant (Kd) of 2.98 µM; the kon was determined as 383 M⁻¹ s⁻¹. For the same molecule, on chymotrypsin C (CTRC), the “inhibition of CTRC” value was “strong inhibitory effect”. In addition, the affinity on SARS-CoV-2 3CL^pro [5], expressed as Ki, was 0.93 µM. The molecule also yielded a 50% inhibitory concentration (IC50) against SARS-CoV-2 3CL^pro [5] (IC50, SARS-CoV-2 3CL^pro) of 1.54 ± 0.38 µM. For the same molecule, on SARS-CoV-2 3CL^pro [5] (IC50, SARS-CoV-2 3CL^pro (TDI)), inhibition was half-maximal at 4.39 ± 0.53 µM (IC50). Moreover, in [6], the CC50 is greater than 200 µM. Moreover, the “cytotoxicity against hACE2-HEK293T cells” value in the series with hACE2-HEK293T cells (screening concentrations 5 µM and 50 µM) is given as “not significantly cytotoxic”. In addition, on cathepsin B (CTSB), the “inhibition of CTSB” value is given as “did not inhibit”.

In the case of `C[C@@H]1O[C@@H](O[C@H]2[C@H](OC(=O)[C@]34CCC(C)(C)C[C@H]3C3=CC[C@@H]5[C@@]6(C)C[C@H](O)[C@H](O[C@@H]7O[C@H](CO)[C@@H](O)[C@H](O)[C@H]7O)C(CO)(CO)[C@@H]6CC[C@@]5(C)[C@]3(C)C[C@H]4O)OC[C@H](O)[C@@H]2O)[C@H](O)[C@H](O)[C@H]1O[C@@H]1OC[C@@H](O)[C@H](O)[C@H]1O` [DPD, Deapio platycodin D], on ACE2, the dissociation constant (Kd) came out at 358 µM, the kon was 54.6 M⁻¹ s⁻¹ and the koff was 0.0196 s⁻¹. The “antiviral activity against HCoV-229E” value in the series with HCoV-229E (12.50 µM (MNTC), BEL-7402 cells, RT-qPCR) was “significant antiviral activity”. Moreover, in the series with HCoV-229E (Human coronavirus 229E, Bel-7402, read-out: IC50, HCoV-229E replication), the IC50 is 3.3 µM. Further, the “inhibition of SARS-CoV-2 3CL^pro” value on SARS-CoV-2 3CL^pro [3] is “lack of inhibition”. The “maximum non-toxic concentration (MNTC)” value in the series with BEL-7402 cells was determined as 12.50 µM. For the same molecule, in the series on SARS-CoV-2-S pseudovirus, the “selectivity index (SI), [CC50]/[IC50]” value is given as 25.73; the “inhibition of attachment of SARS-CoV-2-S pseudovirus to ACE2-expressing HEK293T cells” value was “significantly inhibited”; the IC50 is 1.38 ± 0.46 µM. Further, at S-RBD, the Kd stood at 379 µM and the kon is 103 M⁻¹ s⁻¹. Further, the Tmax entry in [7] (oral administration ref 60) is on record as “under 1 h”. The elimination from tissues result in [7] (particularly lung tissue ref 60) was “slow elimination”. Further, the CC50 in series [6] worked out at 35.5 ± 1.77 µM. Moreover, in the series on hACE2-HEK293T cells (5 µM), the “cytotoxicity against hACE2-HEK293T cells” value was “no cytotoxicity”. Moreover, the “cytotoxicity against hACE2-HEK293T cells” value with hACE2-HEK293T cells (50 µM, p < 0.001) is on record as “had cytotoxicity”.

The Kd is the concentration at which binding is half-saturated. As a reminder, the CC50 is the concentration at which the toxic effect on the cells reaches its halfway point. The IC50 is the concentration needed to halve the response being measured. A word on the Ki: it is a dissociation constant, usually derived from enzyme kinetics or from competition with a known ligand.
